According to article PMC9320607, “Synthesis, Biological Evaluation and Docking Studies of Ring-Opened Analogues of Ipomoeassin F” (Molecules, 2022):
“Also recorded” adds a separate entry of the source. Read-outs that look alike come from different tables or passages of the source.

Legend:
[1] = system: NCI 60-cell line; assay: NCI 60-cell line screening; format: cell-based, human; settings: for GI50: Homo sapiens, read-out: average GI50
Text: (§1) To investigate the impact of ring-opening, we first submitted the open-chain analogue 1 [9] to the National Cancer Institute (NCI) 60-cell line screening (Supplementary Material S1) and determined the cytotoxicity of nine newly synthesized open-chain analogues 4–12 (Figure 2, Supplementary Materials S2 and S3) against MDA-MB-231 cells (Table S1). […] Furthermore, the majority of the nine new open-chain analogues were modestly less cytotoxic towards MDA-MB-231 cells when compared to their direct ring-closed counterparts (analogues 13–21 matching with 4–12; Figures S1 and S2 and Table S1).

[2] = system: MDA-MB-231 cells; assay: Resazurin-based cytotoxicity assay in MDA-MB-231 cells; format: cell-based, human; settings: for IC50: Homo sapiens
Text: as §1
The human breast cancer cell line (MDA-MB-231) was maintained in a DMEM high glucose culture medium supplemented with 10% (v/v) fetal bovine serum (FBS) and 2 mM L-glutamine. Parental (Sec61α-WT) HCT-116 (human colorectal cancer cells, ATCC, CCL-247) and mutant (Sec61α-G80W) HCT-116 cells were maintained in McCoy’s 5A (modified) medium ((ThermoFisher, Waltham, MA, USA, 16600-082)) supplemented with 10% (v/v) FBS (Gibco, 10500-064) and 100 units/mL penicillin and […] streptomycin (Gibco, cat: 15140-122). All cell lines were maintained in a 5% CO2 humidified incubator at 37 °C. Cytotoxicity assays were performed in triplicate sets as previously described and viable cells were counted using an automated cell counter (Bio-Rad TC20) immediately before each experiment. Compound stock solutions in DMSO (10 mM) were diluted with supplemented culture media (MDA-MB-231 cells: high glucose DMEM; HCT116 Sec61α-WT and Sec61α-G80W cells: McCoy’s (modified) 5A) to make a series of gradient fresh working solutions at equal DMSO percentage immediately prior to each test. First, […] of cells at a cell density of […] (MDA-MB-231 cells) or 2.5 × 10^4 cells/mL (Sec61α-WT or Sec61α-G80W HCT-116 cells) were seeded in black 96-well microtiter plates (Falcon, product 353219; 2500 cells/well) and incubated at 37° C for 24 h. Subsequently, the cells were treated with either […] of the freshly made gradient working solution in a total volume of […]/well (MDA-MB-231 cells) or 25 mL of freshly made gradient in a total volume of […]/well (Sec61α-WT or Sec61α-G80W HCT-116 cells) at 37 °C for 72 h. For MDA-MB-231 cells, the media were discarded and […] fresh medium containing 10% (v/v) alamarBlue HS cell viability reagent (resazurin stock solution) (ThermoFisher, Waltham, MA, USA, A50100) was added to each well. For Sec61α-WT or Sec61α-G80W HCT-116 cells, the media was not discarded and alamarBlue HS cell viability reagent (resazurin stock solution) (ThermoFisher, Waltham, MA, USA, A50100) was added to 10% (v/v). After that, all cells were incubated at 37 °C for a further 1–3 h and the emission of each well at 620 nm was detected using a Synergy H1 Hybrid multi-mode plate reader (BioTek, Agilent Technologies, Palo Alto, CA, USA) at excitation 580 nm. […] IC50 value estimates were determined using nonlinear regression to fit data to a curve of variable slope (four parameters) using the least-squares fitting method. For HCT-116 cell IC50 curves, the top and bottom plateaus were defined as 100% and 23.70% (the mean of all data at 25 µM across all compounds), respectively.

[3] = biological target: T1, Sec61-mediated protein translocation (membrane integration of Ii) (Canis lupus familiaris, UniProt P38377); assay: In vitro membrane insertion assay of Ii with ER microsomes; format: biochemical, canine; settings: for reduction in Ii membrane integration / inhibition of in vitro membrane integration of Ii: 1 µM compound; for inhibition of in vitro membrane integration of Ii: versus DMSO control
T1 construct: cell-free translation system supplemented with ER microsomes derived from canine pancreas; from tissue; host or cells: canine pancreas ER microsomes (nuclease-treated); the Ii substrate was translated in vitro from T7-transcribed RNA
Text: Having previously established that the principal molecular basis for the cytotoxicity of Ipom-F is its strong, yet reversible, binding to Sec61α and the resultant wide-ranging blockade of Sec61-mediated protein translocation at the ER [13], we sought evidence that this mechanism also underlies the cytotoxic effects of 1 and other open-chain analogues. […] For comparative purposes, we analyzed the effects of 2 [13] and two closed-chain compounds: Ipom-F and the diester-modified analogue 22 [11] in parallel (Figure 3A).
Following the resolution of radiolabeled proteins by SDS-PAGE (Figure 3B), we used the efficiency with which the N-terminal domain of the type II integral membrane protein Ii (short form of HLA class II histocompatibility antigen gamma chain, isoform 1) was N-glycosylated inside the ER lumen as a robust reporter for the authentic membrane integration of this model Sec61-dependent protein client (Figure 3B, right upper panel, 0Gly versus 2 Gly forms).
(§2) Linear DNA of the short form of human HLA class II histocompatibility antigen gamma chain (Ii; P04232, […], residues 17–232) or human glycophorin C (GypC; P04921) were generated by PCR and transcribed into RNA using T7 RNA polymerase (Promega). Membrane insertion assays (20 µL, 1 h at 30 °C, containing 6.5% (v/v) nuclease-treated ER microsomes (from stock with OD280 = 44/mL)), endoglycosidase Hf (New England Biolabs) treatment, sample resolution by SDS-PAGE (16% polyacrylamide gels) and gel drying were performed as previously described. Following exposure to a phosphorimaging plate for 24–72 h, radiolabeled products were visualized using a Typhoon FLA-7000 (GE Healthcare, Tokyo, Japan) and the ratio of the signal intensity for the N-glycosylated (XGly) and non-glycosylated (0Gly) forms obtained using AIDA v.5.0 (Raytest Isotopenmeβgeräte). This value was then expressed relative to the matched DMSO control (set to 100%) in order to estimate the mean relative insertion (± SEM) from insertion experiments performed in triplicate (n = 3, biologically independent experiments). IC50 value estimates were determined in Prism 8 (GraphPad, San Diego, CA, USA) using nonlinear regression to fit data to a curve of variable slope (four parameters) using the least-squares fitting method, with the top and bottom plateaus of the curve defined as 100% and 7.67% (the mean of all data at 500 µM across all compounds), respectively.

[4] = system: HCT116 Sec61α-WT cells; assay: Resazurin-based cell viability assay in HCT116 Sec61α-WT cells; set-up: species or system human; settings: for cell death: 50 nM; for IC50: Homo sapiens
Protocol: Parental (Sec61α-WT) […] All cell lines were maintained in a 5% CO2 humidified incubator at 37 °C. Cytotoxicity assays were performed in triplicate sets as previously described and viable cells were counted using an automated cell counter (Bio-Rad TC20) immediately before each experiment. Compound stock solutions in DMSO (10 mM) were diluted with supplemented culture media (MDA-MB-231 cells: high glucose DMEM; HCT116 Sec61α-WT and Sec61α-G80W cells: McCoy’s (modified) 5A) to make a series of gradient fresh working solutions at equal DMSO percentage immediately prior to each test. […] For MDA-MB-231 cells, the media were discarded and […] fresh medium containing 10% (v/v) alamarBlue HS cell viability reagent (resazurin stock solution) (ThermoFisher, Waltham, MA, USA, A50100) was added to each well. For Sec61α-WT or Sec61α-G80W HCT-116 cells, the media was not discarded and alamarBlue HS cell viability reagent (resazurin stock solution) (ThermoFisher, Waltham, MA, USA, A50100) was added to 10% (v/v). After that, all cells were incubated at 37 °C for a further 1–3 h and the emission of each well at 620 nm was detected using a Synergy H1 Hybrid multi-mode plate reader (BioTek, Agilent Technologies, Palo Alto, CA, USA) at excitation 580 nm. […] IC50 value estimates were determined using nonlinear regression to fit data to a curve of variable slope (four parameters) using the least-squares fitting method.

[5] = system: membrane integration of GypC; assay: In vitro membrane insertion assay of GypC with ER microsomes (selectivity control); format: biochemical, canine; settings: 1 µM compound
Protocol: Following the successful synthesis of analogue 3, we first analyzed its effects on the in vitro membrane integration of our two model protein substrates, Ii and GypC (Figure 6A–C).
as §2, with “IC50 value estimates were determined in Prism 8 (GraphPad, San Diego, CA, USA) using nonlinear regression to fit data to a curve of variable slope (four parameters) using the least-squares fitting method, with the top and bottom plateaus of the curve defined as 100% and 7.67% (the mean of all data at 500 µM across all compounds), respectively.” left out

[6] = system: HCT116 Sec61α-G80W cells; assay: Resazurin-based cell viability assay in HCT116 Sec61α-G80W cells; set-up: species or system human; settings: 50 nM, 72 h
Text: To confirm that Sec61α is the primary target of open-chain analogues and that this interaction underlies their cytotoxic effects, we next used a resazurin-based cell viability assay (Figure 3F) to compare the effects of each compound on the growth of HCT-116 cells that were wild-type for Sec61α (HCT116 Sec61α-WT) or carrying a heterozygous point mutant in SEC61A1 (HCT116 Sec61α-G80W) that confers resistance to Ipom-F, and reduces binding of mycolactone to the Sec61 translocon by mechanism that involves an alteration in translocon dynamics.
The human breast cancer cell line (MDA-MB-231) was maintained in a DMEM high glucose culture medium supplemented with 10% (v/v) fetal bovine serum (FBS) and 2 mM L-glutamine. […] Cytotoxicity assays were performed in triplicate sets as previously described and viable cells were counted using an automated cell counter (Bio-Rad TC20) immediately before each experiment. […] After that, all cells were incubated at 37 °C for a further 1–3 h and the emission of each well at 620 nm was detected using a Synergy H1 Hybrid multi-mode plate reader (BioTek, Agilent Technologies, Palo Alto, CA, USA) at excitation 580 nm. […] IC50 value estimates were determined using nonlinear regression to fit data to a curve of variable slope (four parameters) using the least-squares fitting method. […]

[7] = MDA-MB-231, 72 h, MDA-MB-231 cells, 72 h, read-out: IC50 (cytotoxicity)
[8] = MDA-MB-231, MDA-MB-231 cells, at least three independent experiments, read-out: IC50 ± SD, ring-open
[9] = Table 1, Ii membrane integration, read-out: In Vitro Translocation Inhibition (IC50)
[10] = HCT-116, Table 1, HCT116 Sec61α-WT cells, read-out: Cytotoxicity HCT-116 Cells (IC50)

T1 sequence (P60058 whole entry): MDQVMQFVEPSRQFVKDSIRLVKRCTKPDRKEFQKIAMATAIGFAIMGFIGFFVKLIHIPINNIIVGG
T1 sequence (P38377 2-476): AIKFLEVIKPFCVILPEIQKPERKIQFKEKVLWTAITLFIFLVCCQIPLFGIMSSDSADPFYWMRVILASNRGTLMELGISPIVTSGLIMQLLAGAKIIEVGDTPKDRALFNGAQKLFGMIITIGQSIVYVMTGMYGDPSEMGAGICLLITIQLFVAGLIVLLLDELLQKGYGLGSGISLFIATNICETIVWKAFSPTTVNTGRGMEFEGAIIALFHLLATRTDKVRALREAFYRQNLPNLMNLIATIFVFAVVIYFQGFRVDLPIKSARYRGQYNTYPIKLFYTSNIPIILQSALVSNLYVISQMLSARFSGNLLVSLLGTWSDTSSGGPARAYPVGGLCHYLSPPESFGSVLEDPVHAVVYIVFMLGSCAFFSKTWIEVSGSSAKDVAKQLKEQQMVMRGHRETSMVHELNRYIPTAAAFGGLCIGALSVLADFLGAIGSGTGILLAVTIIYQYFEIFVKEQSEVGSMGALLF
T1 sequence (P60467 2-96, further chain): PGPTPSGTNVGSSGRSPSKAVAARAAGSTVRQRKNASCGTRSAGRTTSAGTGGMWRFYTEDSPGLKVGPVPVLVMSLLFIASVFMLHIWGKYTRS

| SMILES | reduction in Ii membrane integration [3] | inhibition of in vitro membrane integration of Ii [3] | cell death ([4]; HCT116 Sec61α-WT cells, 72 h) | IC50 [2, 7] [µM] | IC50 [2, 8] [µM] | IC50 [3, 9] [µM] | IC50 [4, 10] [µM] | further results |
| --- | --- | --- | --- | --- | --- | --- | --- | --- |
| C/C=C(\C)C(=O)O[C@@H]1[C@@H](O)[C@@H]2O[C@H]3[C@H](O[C@@H](CCCCC)CCCCCCC(=O)CCC(=O)OC[C@@H](O2)[C@H]1OC(=O)/C=C/c1ccccc1)O[C@H](C)[C@H](OC(C)=O)[C@@H]3O [Ipom-F, ipomoeassin F] | 73–86% | efficiently, albeit variably, inhibited | 48–64% | – | – | – | – | GI50 ([1]; 60 cell): ~0.03 µM; IC50 ([2]; MDA-MB-231, 72 h, read-out: IC50 (cytotoxicity)): ~0.007 µM; IC50 ([2]; MDA-MB-231, read-out: IC50 ± SD, ring-closed): 0.0065 ± 0.0004 µM; IC50 [3]: 0.155 µM; IC50 ([4]; HCT-116, read-out: Cytotoxicity HCT-116 Cells (IC50)): 0.018 µM |
| C=CCCCC(=O)CCC(=O)OC[C@H]1O[C@@H](O[C@H]2[C@H](O[C@H](CC=C)CCCCC)O[C@H](C)[C@H](OC(C)=O)[C@@H]2O)[C@H](O)[C@@H](OC(=O)/C(C)=C/C)[C@@H]1OC(=O)/C=C/c1ccccc1 [analogue 1] | – | efficiently, albeit variably, inhibited | 48–64% | ~0.06 | 0.059 ± 0.0081 | 0.562 | 0.17 | GI50 ([1]; NCI 60-cell line screening, average over cell lines): ~0.135 µM; loss in potency when compared to Ipom-F ([1]; NCI 60-cell line average GI50): 4–5 fold; loss in potency when compared to Ipom-F ([2]; MDA-MB-231 cells IC50): 9 fold |
| C/C=C(\C)C(=O)O[C@@H]1[C@@H](O)[C@H](O[C@H]2[C@H](O[C@H](CCC)CCCCC)O[C@H](C)[C@H](OC(C)=O)[C@@H]2O)O[C@H](COC(=O)CCC(=O)CCCCC)[C@H]1OC(=O)/C=C/c1ccccc1 [analogue 2] | 73–86% | efficiently, albeit variably, inhibited | 48–64% | – | – | 0.202 | 0.041 | – |
| CC=C(C)C(=O)OC1C(O)C(OC2C(OC(CCCCC)CCCCC)OC(C)C(OC(C)=O)C2O)OC(COC(=O)CCC(=O)OCCCC)C1OC(=O)C=Cc1ccccc1 (centres unmarked) [analogue 3] | 73–86% | – | ~ 58% | – | – | – | – | IC50 ([3]; estimated from titration 500 µM–5 nM, read-out: IC50 (in vitro membrane integration of Ii)): 0.242 µM; effect on membrane integration of GypC [5]: did not affect; IC50 ([4]; HCT-116, HCT116 Sec61α-WT cells, 72 h, titration 25 µM–1 nM, read-out: IC50 (cytotoxicity)): 0.04 µM; effect on cell viability [6]: cell death was not observed |
| C=CCCN(C)C(=O)CCC(=O)OCC1OC(OC2C(OC(CC=C)CCCCC)OC(C)C(OC(C)=O)C2O)C(O)C(OC(=O)C(C)=CC)C1OC(=O)C=Cc1ccccc1 (centres unmarked) [analogue 5] | 73–86% | efficiently, albeit variably, inhibited | 48–64% | ~0.043 | 0.043 ± 0.011 | 0.291 | 0.041 | – |
| C=CCCCCCCC(=O)OCC1OC(OC2C(OC(CC=C)CCCCC)OC(C)C(OC(C)=O)C2O)C(O)C(OC(=O)C(C)=CC)C1OC(=O)C=Cc1ccccc1 (centres unmarked) [analogue 6] | – | did not; also recorded: negligible inhibition | ~ 20% | ~0.205 | 0.205 ± 0.011 | – | – | loss in activity when compared to 1 ([2]; MDA-MB-231 cells IC50): 3–4 fold |
| C/C=C(\C)C(=O)O[C@@H]1[C@@H](O)[C@@H]2O[C@H]3[C@H](O[C@@H](CCCCC)CCCCCOC(=O)CCC(=O)OC[C@@H](O2)[C@H]1OC(=O)/C=C/c1ccccc1)O[C@H](C)[C@H](OC(C)=O)[C@@H]3O [analogue 22] | – | efficiently, albeit variably, inhibited | 48–64% | – | – | 0.334 | 0.07 | – |
